Earlier results as cited in patent US20060253014A1 (priority 2003, published 2006).
Like-named read-outs stand apart in the source and are kept apart here.

Test system: inbred mouse strains

For Clc1ccc(C2CC3CCC2N3)cn1 (stereo not drawn) [Epibetadine, epibatidine], the “Resistant Stains (high AD50)” value (mouse, in vivo) is given as “AKR, CBA, C57BL/10” and the “Sensitive Strains (low AD50)” value (mouse, in vivo) is given as “A, BALB/c”.
For Clc1cccc(Cl)c1N=C1NCCN1 [Clonidine, clonidine], the “Sensitive Strains (low AD50)” value (murine strains, AD50 = the half-maximal antinociceptive dose) is given as 129P3, A, AKR,.
For CN1CC[C@]23c4c5ccc(O)c4O[C@H]2[C@@H](O)C=C[C@H]3[C@H]1C5 [morphine], the “Sensitive Strains (low AD50)” value (mouse, in vivo) is given as 129P3, C3H/He, DBA/2.
For Cc1c(C(=O)c2cccc3ccccc23)c2cccc3c2n1[C@H](CN1CCOCC1)CO3 [WIN 55, 212-2], the “Resistant Stains (high AD50)” value (mouse, in vivo) is given as “AKR, C57BL/10, C58” and the “Sensitive Strains (low AD50)” value (mouse, in vivo) is given as 129P3, A, DBA/2.
